Test results reported in patent US11834480B2 (priority 2020, dated 2023).
Square brackets hold non-standard residues; d marks the D form.

Legend:
[1] = target: D-form of SARS-CoV-2 HR1 (SARS CoV-2 D-HR1-biotin) (Severe acute respiratory syndrome coronavirus 2, UniProt P0DTC2); assay type: binding
[2] = tested on: SARS CoV-2 pseudotyped lentivirus; assay type: cell-based; settings: read-out: observed IC50, inhibition of pseudotyped virus infection
[3] = target: L-form of SARS-CoV-2 HR1 (SARS CoV-2 HR1-biotin) (Severe acute respiratory syndrome coronavirus 2, UniProt P0DTC2); assay: biochemical; assay type: binding

Substance | affinity for SARS CoV-2 D-HR1-biotin compared with parental SEQ ID NO: 11 [1] | IC50 [2] | Kd [3]
ATVKFTYQGEEKQVDISKIKYVLRIGQAIWFRYDEGGGAIGNGWVSEEDAPKELLQMLEKR [SEQ ID NO:51] | higher affinity | – | –
ATVKFTYQGEEKQVDISKIKYVLRIGQAIWFRYDEGGGAIGNGWVSEEDAPKELLQMLGKR [SEQ ID NO:53] | higher affinity | – | –
[dA][dT][dV][dK][dF][dT][dY][dQ]G[dE][dE][dK][dQ][dV][dD][dI][dS][dK][dI][dK][dY][dV][dL][dR][dI]G[dQ][dA][dI][dW][dF][dR][dY][dD][dE]GGG[dA][dI]G[dN]G[dW][dV][dS][dE][dK][dD][dA][dP][dK][dE][dL][dL][dQ][dM][dL][dE][dK][dQ] [SEQ ID NO:12] | – | 2.2 µM | 0.814 µM
